Values joined by “and” are separate entries in the source; they are usually repeats but may differ in a detail not shown here. Equal values may be shown once. “Also recorded” adds a separate entry of the source. Marks after values point to notes of the source that are not given here.

The nature of the series: Adverse events over 28-day treatment in treatment naïve chronic hepatitis B patients. The series is classed as in vivo, human. The settings on record: for Amylase Increased (most common AEs) / At least one AE (on-treatment, 28 days) / Headache (most common AEs) / Worst Grade 1 AEs / Worst Grade 2 AEs / Worst Grade 3 AEs: n = 8. The text has this:
In part 2 of this study (FIG. 1, sessions 8-9), the objective was to evaluate the safety, PK, and antiviral activity of Compound A in treatment naïve, chronic hepatitis B patients over a 28-day treatment period. The patient criteria were: • HBeAg-positive or negative • Plasma HBV DNA>2.0 log 10 IU/mL • ALT/AST<2.5×ULN • METAVIR stage<F3. […] Although no patients had Grade 3 or 4 AEs on treatment, one patient had Grade 1 & 2 ALT and Grade 1 AST elevations on treatment that rose to Grade 3 & 4 ALT and Grade 3 AST elevations in follow up.

As for `C[C@H](NS(=O)(=O)c1cc(C(=O)Nc2ccc(F)c(C#N)c2)n(C)c1)C(F)(F)F` [Compound A], where the note is “25 mg (100 mg Day 1)”, the “Amylase Increased (most common AEs)” value is given as 2 (25)** n (%); the “At least one AE (on-treatment, 28 days)” value was 5 n (%) and 5 (63) n (%); the “Headache (most common AEs)” value was 2 (25) n (%); the “Worst Grade 1 AEs” value is listed as 3 (38) n (%). For the same compound, where the note is “25 mg (100 mg Day 1)”, the “Worst Grade 2 AEs” value was 1 (13) n (%) and the “Worst Grade 3 AEs” value is 1 (13) n (%). Besides, under “25 mg and 75 mg, 28 days”, the “ECG changes and vital sign abnormalities” value is listed as “no patients showed clinically significant ECG changes or persistent/worsening vital sign abnormalities”; the “serious AEs, discontinuations, dose-limiting toxicities” value was “no serious adverse events (SAES) or adverse events (AEs) of clinical concern and no treatment discontinuations; also recorded: no serious AEs, no discontinuations due to AEs, and no dose-limiting toxicities”; the “treatment-emergent Grade 3 or 4 laboratory abnormalities” value is given as “No treatment-emergent Grade 3 or 4 laboratory abnormalities were reported, with the exception of the Grade 3 amylase increase”. Also, under “75 mg”, the “Amylase Increased (most common AEs)” value is given as 0 n (%); the “At least one AE (on-treatment, 28 days)” value is 4 n (%) and 4 (50) n (%); the “Headache (most common AEs)” value is reported as 0 n (%); the “Worst Grade 1 AEs” value is listed as 2 (25) n (%). Also, under “75 mg”, the “Worst Grade 2 AEs” value is 1 (13) n (%) and the “Worst Grade 3 AEs” value is 0 (0)* n (%). For the same compound, the “patients who experienced at least one AE during treatment” value (both Compound A arms pooled (9/16)) was found to be 56%.

Source of the values: patent publication US10973801B2, “Capsid assembly modulator dosing regimen” (Janssen Sciences Ireland Unlimited Company, priority 2018, dated 2021).
